Data reported in patent publication US20250388575A1, “HETEROBIFUNCTIONAL COMPOUNDS AND METHODS OF TREATING DISEASE” (Halda Therapeutics OpCo, Inc., priority 2022, published 2025).
Read-outs that look alike come from different tables or passages of the source.

What was measured:
[1] = system: T-Rex 293 cell line SC3 cells having increased expression of androgen receptor protein; assay: Cellular growth inhibition, T-Rex 293 SC3 cells with increased androgen receptor expression (doxycycline), CellTiter-Glo; assay type: cell-based; settings: T-Rex 293 SC3 cells with increased androgen receptor expression (exposed to 10 ng/mL doxycycline), 72 hours, CellTiter-Glo; read-out: GI50
In short: (§1)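 SC3, a T-Rex 293 clone with doxycycline-inducible wild-type androgen receptor, was seeded in phenol red-free DMEM with 10% charcoal-dextran FBS, with or without 10 ng/mL doxycycline. Compound added at 24 h (0.5% DMSO) for 72 h at 37° C. CellTiter-Glo 2.0 luminescence; GI50 from four-parameter fit.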

[2] = system: T-Rex 293 cell line SC3 cells lacking increased expression of androgen receptor protein; assay: Cellular growth inhibition, T-Rex 293 SC3 cells lacking increased androgen receptor expression (no doxycycline), CellTiter-Glo; assay type: cell-based; settings: T-Rex 293 SC3 cells lacking increased androgen receptor expression (not exposed to doxycycline), 72 hours, CellTiter-Glo; read-out: GI50
In short: as §1

VCaP cells = assay: Cellular growth inhibition assay for VCaP cells, CellTiter-Glo; assay type: cell-based, human; settings: VCaP cells, 72 hours, CellTiter-Glo, read-out: GI50
In short: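 GI50 values come from four-parameter curve fits of luminescence data normalized to a zero baseline. Compound, in medium with 0.5% DMSO, was added one day after plating and left for 72 h before CellTiter-Glo 2.0 addition.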

T47D cells = assay: Cellular growth inhibition assay for T47D cells, CellTiter-Glo; assay type: cell-based, human; settings: 72 hours treatment, CellTiter-Glo 2.0
In short: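 Luminescence from CellTiter-Glo 2.0 after 72 h of compound exposure gives the viability signal. Cells grew in insulin-supplemented (0.2 units/mL) DMEM with 10% FBS and were treated one day after seeding at 0.5% DMSO. GI50 values come from four-parameter nonlinear regression.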

GI50 (VCaP cells) | GI50 (T47D cells) | GI50 (VCaP cells; Homo sapiens) | GI50 (T47D cells; Homo sapiens) | SMILES | GI50 [1] | GI50 [2]
– | – | > 3000 nM | 500 to 1500 nM | Cn1cc(-c2cc(C(C)(C)O)ccc2CN2CC(CC3CCN(c4ccc(C(=O)NC5CCC(Oc6ccc(C#N)c(Cl)c6)CC5)nn4)CC3)C2)c2cc[nH]c2c1=O (stereo not drawn) [I-248, N-[4-(3-chloro-4-cyano-phenoxy)cyclohexyl]-6-[4-[[1-[[4-(1-hydroxy-1-methyl-ethyl)-2-(6-methyl-7-oxo-1H-pyrrolo[2,3-c]pyridin-4-yl)phenyl]methyl]azetidin-3-yl]methyl]-1-piperidyl]pyridazine-3-carboxamide] | 500 to 1500 nM | 1500 to 3000 nM
– | – | 500 to 1500 nM | 500 to 1500 nM | Cn1cc(-c2cc(C3CCS(=O)(=O)CC3)ccc2Oc2ccc(CCC3CCN(c4ccc(C(=O)NC5CCC(Oc6ccc(C#N)c(Cl)c6)CC5)nn4)CC3)cc2)c2cc[nH]c2c1=O (stereo not drawn) [I-250, N-[4-(3-chloro-4-cyano-phenoxy)cyclohexyl]-6-[4-[2-[4-[4-(1,1-dioxothian-4-yl)-2-(6-methyl-7-oxo-1H-pyrrolo[2,3-c]pyridin-4-yl)phenoxy]phenyl]ethyl]-1-piperidyl]pyridazine-3-carboxamide] | < 500 nM | < 500 nM
> 3000 nM | < 500 nM | – | – | CCS(=O)(=O)c1ccc(C(F)(F)c2ccc(CCC3CCN(c4ccc(C(=O)NC5CCC(Oc6ccc(C#N)c(Cl)c6)CC5)nn4)CC3)cc2)c(-c2cn(C)c(=O)c3[nH]ccc23)c1 (stereo not drawn) [I-251, N-((1r,4r)-4-(3-chloro-4-cyanophenoxy)cyclohexyl)-6-(4-(4-((4-(ethylsulfonyl)-2-(6-methyl-7-oxo-6,7-dihydro-1H-pyrrolo[2,3-c]pyridin-4-yl)phenyl)difluoromethyl)phenethyl)piperidin-1-yl)pyridazine-3-carboxamide] | < 500 nM | > 3000 nM
– | – | < 500 nM | 500 to 1500 nM | Cn1cc(-c2cc(C3CCCS3(=O)=O)ccc2Oc2ccc(CCC3CCN(c4ccc(C(=O)NC5CCC(Oc6ccc(C#N)c(Cl)c6)CC5)nn4)CC3)cc2)c2cc[nH]c2c1=O (stereo not drawn) [I-252, N-[4-(3-chloro-4-cyano-phenoxy)cyclohexyl]-6-[4-[2-[4-[4-(1,1-dioxothiolan-2-yl)-2-(6-methyl-7-oxo-1Hpyrrolo[2,3-c]pyridin-4-yl)phenoxy]phenyl]ethyl]-1-piperidyl]pyridazine-3-carboxamide] | < 500 nM | > 3000 nM
– | – | < 500 nM | 1500 to 3000 nM | Cn1cc(-c2cc(C(C)(C)O)ccc2Oc2ccc(C3CN(C4CCN(c5ccc(C(=O)N[C@H]6CC[C@H](Oc7ccc(C#N)c(Cl)c7)CC6)nn5)CC4)C3)cc2)c2cc[nH]c2c1=O [I-254] | < 500 nM | 500 to 1500 nM

More lines, now with the values behind:

SMILES | GI50 (VCaP cells) | GI50 (T47D cells) | GI50 (VCaP cells; Homo sapiens) | GI50 (T47D cells; Homo sapiens) | GI50 [1] | GI50 [2]
CCS(=O)(=O)c1ccc(OC2CC(OC3CC4(CCN(c5ccc(C(=O)N[C@H]6CC[C@H](Oc7ccc(C#N)c(Cl)c7)CC6)nn5)CC4)C3)C2)c(-c2cn(C)c(=O)c3[nH]ccc23)c1 (stereo partly drawn) [I-229] | < 500 nM | < 500 nM | – | – | < 500 nM | < 500 nM
Cn1cc(-c2cc(S(C)(=O)=O)ccc2Oc2cccc(CCCC3CCN(c4ncc(C(=O)N[C@H]5CC[C@H](Oc6ccc(C#N)c(Cl)c6)CC5)cn4)CC3)c2)c2cc[nH]c2c1=O [I-233] | < 500 nM | < 500 nM | – | – | < 500 nM | < 500 nM
Cn1cc(-c2cc(N3CCCS3(=O)=O)ccc2Oc2ccc(CCC3CCN(c4ccc(C(=O)NC5CCC(Oc6ccc(C#N)c(Cl)c6)CC5)nn4)CC3)cc2)c2cc[nH]c2c1=O (stereo not drawn) [I-239, N-[4-(3-chloro-4-cyano-phenoxy)cyclohexyl]-6-[4-[2-[4-[4-(1,1-dioxo-1,2-thiazolidin-2-yl)-2-(6-methyl-7-oxo-1H-pyrrolo[2,3-c]pyridin-4-yl)phenoxy]phenyl]ethyl]-1-piperidyl]pyridazine-3-carboxamide] | – | – | < 500 nM | < 500 nM | < 500 nM | < 500 nM
CCS(=O)(=O)Cc1ccc(OC2CC(OCC3CCN(c4ccc(C(=O)NC5CCC(Oc6ccc(C#N)c(Cl)c6)CC5)nn4)CC3)C2)c(-c2cn(C)c(=O)c3[nH]ccc23)c1 (stereo not drawn) [I-240, N-((1r,4r)-4-(3-chloro-4-cyanophenoxy)cyclohexyl)-6-(4-(((1r,3r)-3-(4-((ethylsulfonyl)methyl)-2-(6-methyl-7-oxo-6,7-dihydro-1H-pyrrolo[2,3-c]pyridin-4-yl)phenoxy)cyclobutoxy)methyl)piperidin-1-yl)pyridazine-3-carboxamide] | < 500 nM | < 500 nM | – | – | < 500 nM | < 500 nM
Cn1cc(-c2cc(S(C)(=O)=O)ccc2OC(CCCCN2CCN(c3ccc(C(=O)NC4CCC(Oc5ccc(C#N)c(Cl)c5)CC4)nn3)CC2)C2CC2)c2cc[nH]c2c1=O (stereo not drawn) [I-244, N-[4-(3-chloro-4-cyano-phenoxy)cyclohexyl]-6-[4-[5-cyclopropyl-5-[2-(6-methyl-7-oxo-1H-pyrrolo[2,3-c]pyridin-4-yl)-4-methylsulfonyl-phenoxy]pentyl]piperazin-1-yl]pyridazine-3-carboxamide] | – | – | < 500 nM | < 500 nM | < 500 nM | < 500 nM
Cn1cc(-c2cc(C3CCCS3(=O)=O)ccc2OC2CC(OCC3CCN(c4ccc(C(=O)NC5CCC(Oc6ccc(C#N)c(Cl)c6)CC5)nn4)CC3)C2)c2cc[nH]c2c1=O (stereo not drawn) [I-245, N-[4-(3-chloro-4-cyano-phenoxy)cyclohexyl]-6-[4-[[3-[4-(1,1-dioxothiolan-2-yl)-2-(6-methyl-7-oxo-1H-pyrrolo[2,3-c]pyridin-4-yl)phenoxy]cyclobutoxy]methyl]-1-piperidyl]pyridazine-3-carboxamide] | – | – | < 500 nM | < 500 nM | < 500 nM | < 500 nM
Cn1cc(-c2cc(N3CCCCS3(=O)=O)ccc2Oc2ccc(CCC3CCN(c4ccc(C(=O)NC5CCC(Oc6ccc(C#N)c(Cl)c6)CC5)nn4)CC3)cc2)c2cc[nH]c2c1=O (stereo not drawn) [I-246, N-[4-(3-chloro-4-cyano-phenoxy)cyclohexyl]-6-[4-[2-[4-[4-(1,1-dioxothiazinan-2-yl)-2-(6-methyl-7-oxo-1H-pyrrolo[2,3-c]pyridin-4-yl)phenoxy]phenyl]ethyl]-1-piperidyl]pyridazine-3-carboxamide] | < 500 nM | < 500 nM | – | – | < 500 nM | < 500 nM
